Test results: ChEMBL document CHEMBL4402560, “Sarco/Endoplasmic Reticulum Calcium ATPase Inhibitors: Beyond Anticancer Perspective” (J Med Chem, 2020)

Assays:
[1] = target: T1, Sarcoplasmic/endoplasmic reticulum calcium ATPase 1 (Oryctolagus cuniculus, UniProt P04191); test: Inhibition of rabbit skeletal muscle microsomes SERCA1a preincubated for 10 mins followed by addition of ATP and measured after 40 mins
[2] = target: T1, Sarcoplasmic/endoplasmic reticulum calcium ATPase 1; test: Inhibition of rabbit skeletal muscle microsomes SERCA1a
[3] = target: T2, Sarcoplasmic/endoplasmic reticulum calcium ATPase 2 (Homo sapiens, UniProt P16615); test: Inhibition of SERCA2a (unknown origin)
T2 sequence (P16615 whole entry): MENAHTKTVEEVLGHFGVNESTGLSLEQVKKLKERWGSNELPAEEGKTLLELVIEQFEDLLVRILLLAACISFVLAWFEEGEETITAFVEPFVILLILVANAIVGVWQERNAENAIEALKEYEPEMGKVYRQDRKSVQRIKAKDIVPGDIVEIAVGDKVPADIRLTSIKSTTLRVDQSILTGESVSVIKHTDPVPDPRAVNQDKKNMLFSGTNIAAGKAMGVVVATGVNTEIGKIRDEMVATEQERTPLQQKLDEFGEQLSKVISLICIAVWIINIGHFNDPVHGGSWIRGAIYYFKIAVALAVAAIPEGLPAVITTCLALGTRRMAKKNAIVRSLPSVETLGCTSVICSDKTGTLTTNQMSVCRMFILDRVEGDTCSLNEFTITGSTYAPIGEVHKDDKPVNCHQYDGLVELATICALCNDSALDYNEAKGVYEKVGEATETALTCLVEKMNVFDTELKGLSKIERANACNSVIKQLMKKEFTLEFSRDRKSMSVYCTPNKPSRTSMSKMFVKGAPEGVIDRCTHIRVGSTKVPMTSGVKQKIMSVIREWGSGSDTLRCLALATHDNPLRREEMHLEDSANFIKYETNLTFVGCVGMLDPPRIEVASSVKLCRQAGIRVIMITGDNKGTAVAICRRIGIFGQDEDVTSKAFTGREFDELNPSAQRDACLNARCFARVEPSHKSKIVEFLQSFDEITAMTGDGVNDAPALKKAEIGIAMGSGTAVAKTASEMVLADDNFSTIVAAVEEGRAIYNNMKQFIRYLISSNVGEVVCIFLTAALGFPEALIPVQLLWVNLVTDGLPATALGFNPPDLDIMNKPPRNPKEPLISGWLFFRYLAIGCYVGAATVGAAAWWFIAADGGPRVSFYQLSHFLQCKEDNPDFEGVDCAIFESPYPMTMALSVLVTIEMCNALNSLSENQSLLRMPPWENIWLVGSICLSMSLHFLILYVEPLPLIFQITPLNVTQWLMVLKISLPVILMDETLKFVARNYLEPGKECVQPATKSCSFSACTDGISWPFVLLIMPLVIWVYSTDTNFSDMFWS

[4] = target: T1, Sarcoplasmic/endoplasmic reticulum calcium ATPase 1; test: Inhibition of SERCA1 in rabbit skeletal muscle microsomes assessed as decrease in NADH absorbance by NADH-coupled enzyme assay; parameters: species or system Muscle tissue
[5] = target: T1, Sarcoplasmic/endoplasmic reticulum calcium ATPase 1; test: Inhibition of rabbit skeletal muscle microsomes SERCA1a by malachite green based colorimetric method
[6] = Inhibition of SERCA in human PC3 cell microsomes by enzyme-coupled method
[7] = target: T1, Sarcoplasmic/endoplasmic reticulum calcium ATPase 1; test: Inhibition of rabbit skeletal muscle microsomes SERCA1a incubated for 10 mins by enzyme-coupled method
[8] = target: T1, Sarcoplasmic/endoplasmic reticulum calcium ATPase 1; test: Inhibition of rabbit skeletal muscle microsomes SERCA1a by enzyme-coupled method
[9] = Inhibition of fish liver microsomes SERCA by enzyme-coupled method; parameters: species or system Squalius cephalus
[10] = target: Sarcoplasmic/endoplasmic reticulum calcium ATPase 2 (Rattus norvegicus, UniProt P11507); test: Inhibition of rat cerebellar microsomes SERCA2b by enzyme-coupled method; parameters: species or system Cerebellum
Chain of Sarcoplasmic/endoplasmic reticulum calcium ATPase 2 (Rattus norvegicus, UniProt P11507) (P11507 whole entry): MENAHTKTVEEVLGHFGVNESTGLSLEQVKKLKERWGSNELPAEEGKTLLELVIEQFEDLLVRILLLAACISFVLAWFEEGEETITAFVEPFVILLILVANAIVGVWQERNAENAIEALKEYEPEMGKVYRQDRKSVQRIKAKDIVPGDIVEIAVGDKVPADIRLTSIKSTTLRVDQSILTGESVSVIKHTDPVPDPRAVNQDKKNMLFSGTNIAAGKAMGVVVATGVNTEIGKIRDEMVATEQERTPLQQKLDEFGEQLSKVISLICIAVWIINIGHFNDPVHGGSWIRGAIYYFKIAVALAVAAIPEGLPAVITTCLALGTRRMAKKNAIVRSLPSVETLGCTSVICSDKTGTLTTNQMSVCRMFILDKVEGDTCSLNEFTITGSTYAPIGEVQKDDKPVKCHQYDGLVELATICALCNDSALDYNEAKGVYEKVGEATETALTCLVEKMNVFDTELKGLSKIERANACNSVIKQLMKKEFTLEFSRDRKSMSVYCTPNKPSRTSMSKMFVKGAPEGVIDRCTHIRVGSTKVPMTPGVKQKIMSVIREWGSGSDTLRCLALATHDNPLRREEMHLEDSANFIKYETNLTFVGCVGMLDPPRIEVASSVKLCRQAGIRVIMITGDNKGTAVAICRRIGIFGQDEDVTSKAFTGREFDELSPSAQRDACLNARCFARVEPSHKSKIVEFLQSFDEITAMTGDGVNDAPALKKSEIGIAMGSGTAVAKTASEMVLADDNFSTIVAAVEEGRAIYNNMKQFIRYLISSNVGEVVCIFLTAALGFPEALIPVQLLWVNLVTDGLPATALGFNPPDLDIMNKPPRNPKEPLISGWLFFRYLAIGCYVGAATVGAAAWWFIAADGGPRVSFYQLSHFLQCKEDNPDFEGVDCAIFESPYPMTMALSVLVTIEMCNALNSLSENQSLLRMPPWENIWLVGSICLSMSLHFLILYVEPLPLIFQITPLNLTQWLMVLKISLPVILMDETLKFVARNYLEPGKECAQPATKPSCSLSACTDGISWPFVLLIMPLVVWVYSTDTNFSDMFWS

[11] = target: T1, Sarcoplasmic/endoplasmic reticulum calcium ATPase 1; test: Inhibition of rabbit microsomes SERCA1a by enzyme-coupled method
[12] = Inhibition of Porcine cerebellar microsomes SERCA preincubated for 10 mins followed by addition of ATP and measured after 10 mins by colorimetric method; parameters: species or system Sus scrofa domesticus, Cerebellum
[13] = target: T1, Sarcoplasmic/endoplasmic reticulum calcium ATPase 1; test: Inhibition of rabbit SERCA1a preincubated for 10 mins followed by addition of ATP and measured after 10 mins by colorimetric method
Sus scrofa domesticus = organism: Sus scrofa domesticus; test: Inhibition of Porcine cerebellar microsomes SERCA at 200 uM preincubated for 10 mins followed by addition of ATP and measured after 10 mins by colorimetric method relative to control; conditions: Cerebellum
[14] = Inhibition of Porcine cardiac microsomes SERCA preincubated for 10 mins followed by addition of ATP and measured after 10 mins by colorimetric method; parameters: species or system Sus scrofa domesticus, Heart
Homo sapiens = organism: Homo sapiens; test: Inhibition of SERCA (unknown origin) at 150 uM relative ro control
[15] = Inhibition of SERCA2a in porcine cardiac microsomes; parameters: species or system Sus scrofa domesticus, Heart
[16] = Inhibition of SERCA (unknown origin); parameters: species or system Homo sapiens
[17] = target: T2, Sarcoplasmic/endoplasmic reticulum calcium ATPase 2; test: Inhibition of human SERCA2b expressed in COS7 cells microsomal membranes preincubated for 10 mins followed by addition of ATP and measured after 40 mins by ELISA method; format: cell-based
[18] = target: Sarcoplasmic/endoplasmic reticulum calcium ATPase 3 (Homo sapiens, UniProt Q93084); test: Inhibition of human SERCA3a expressed in COS7 cells microsomal membranes preincubated for 10 mins followed by addition of ATP and measured after 40 mins by ELISA method; format: cell-based
Chain of Sarcoplasmic/endoplasmic reticulum calcium ATPase 3 (Q93084 whole entry): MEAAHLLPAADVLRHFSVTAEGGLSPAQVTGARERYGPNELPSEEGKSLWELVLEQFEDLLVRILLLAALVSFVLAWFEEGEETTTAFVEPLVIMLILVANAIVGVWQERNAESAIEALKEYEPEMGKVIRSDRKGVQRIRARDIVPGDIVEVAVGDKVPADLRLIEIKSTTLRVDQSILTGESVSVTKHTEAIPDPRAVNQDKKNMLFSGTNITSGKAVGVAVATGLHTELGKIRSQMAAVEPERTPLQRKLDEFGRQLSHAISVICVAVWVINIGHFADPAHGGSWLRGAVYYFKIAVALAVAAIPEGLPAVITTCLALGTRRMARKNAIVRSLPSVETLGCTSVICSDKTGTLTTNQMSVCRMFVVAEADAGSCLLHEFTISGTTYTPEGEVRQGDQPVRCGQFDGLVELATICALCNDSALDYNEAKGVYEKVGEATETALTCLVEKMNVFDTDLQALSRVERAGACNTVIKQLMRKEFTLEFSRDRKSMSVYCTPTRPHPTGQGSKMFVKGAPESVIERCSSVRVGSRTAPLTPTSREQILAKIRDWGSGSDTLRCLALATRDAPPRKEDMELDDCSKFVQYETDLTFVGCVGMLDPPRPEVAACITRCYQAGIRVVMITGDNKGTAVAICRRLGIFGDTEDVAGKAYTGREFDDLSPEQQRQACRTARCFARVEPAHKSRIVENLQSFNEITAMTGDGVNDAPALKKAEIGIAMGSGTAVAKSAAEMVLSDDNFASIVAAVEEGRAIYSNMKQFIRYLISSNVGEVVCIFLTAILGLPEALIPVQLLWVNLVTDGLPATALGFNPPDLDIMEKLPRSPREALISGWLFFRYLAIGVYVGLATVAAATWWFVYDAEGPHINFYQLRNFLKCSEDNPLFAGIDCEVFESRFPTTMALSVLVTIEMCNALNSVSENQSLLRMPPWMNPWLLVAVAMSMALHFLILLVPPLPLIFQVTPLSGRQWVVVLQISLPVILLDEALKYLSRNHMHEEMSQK

[19] = target: T1, Sarcoplasmic/endoplasmic reticulum calcium ATPase 1; test: Inhibition of rabbit SERCA1b expressed in COS7 cells microsomal membranes preincubated for 10 mins followed by addition of ATP and measured after 40 mins by ELISA method; format: cell-based

T1 sequence (P04191 whole entry): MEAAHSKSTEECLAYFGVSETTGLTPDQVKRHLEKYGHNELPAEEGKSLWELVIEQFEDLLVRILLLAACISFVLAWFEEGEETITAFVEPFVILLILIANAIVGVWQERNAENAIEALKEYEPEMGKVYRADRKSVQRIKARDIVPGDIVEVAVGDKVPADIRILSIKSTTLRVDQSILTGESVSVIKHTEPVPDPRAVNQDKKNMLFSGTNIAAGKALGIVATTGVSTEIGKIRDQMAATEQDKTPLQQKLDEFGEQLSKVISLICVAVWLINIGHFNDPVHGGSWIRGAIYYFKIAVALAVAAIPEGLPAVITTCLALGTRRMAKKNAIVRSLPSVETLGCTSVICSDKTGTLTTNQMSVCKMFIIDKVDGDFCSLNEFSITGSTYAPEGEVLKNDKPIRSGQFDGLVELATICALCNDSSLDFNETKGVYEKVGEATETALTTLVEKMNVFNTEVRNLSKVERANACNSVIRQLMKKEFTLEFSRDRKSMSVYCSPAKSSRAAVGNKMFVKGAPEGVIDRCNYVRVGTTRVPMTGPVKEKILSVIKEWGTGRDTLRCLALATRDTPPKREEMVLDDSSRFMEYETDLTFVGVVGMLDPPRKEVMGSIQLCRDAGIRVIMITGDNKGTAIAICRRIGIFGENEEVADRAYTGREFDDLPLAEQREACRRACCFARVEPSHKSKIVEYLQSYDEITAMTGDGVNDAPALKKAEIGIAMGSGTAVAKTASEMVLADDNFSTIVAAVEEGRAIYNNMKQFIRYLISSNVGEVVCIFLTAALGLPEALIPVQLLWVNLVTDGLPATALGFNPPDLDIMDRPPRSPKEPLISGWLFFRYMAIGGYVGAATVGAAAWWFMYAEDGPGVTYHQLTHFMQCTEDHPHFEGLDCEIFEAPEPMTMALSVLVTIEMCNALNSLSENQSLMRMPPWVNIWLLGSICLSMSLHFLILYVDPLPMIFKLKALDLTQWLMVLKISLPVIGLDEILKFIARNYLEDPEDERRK

## O=c1c(O)c(-c2ccccc2)oc2cc(O)cc(O)c12 [GALANGIN]
[1]
  IC50: 9 µM

## CC[C@H](C)[C@H](NC(=O)CCCCCNC(=O)[C@H](Cc1ccc(O)cc1)NC(=O)[C@H](CCCNC(=N)N)NC(=O)[C@@H]1CCCN1C(=O)[C@H](CCCNC(=N)N)NC(=O)[C@H](CC(N)=O)NC(=O)[C@H](CCC(N)=O)NC(=O)[C@@H](Cc1ccc(O)cc1)N(C)C(=O)Cc1ccccc1)C(=O)N[C@@H](CC(N)=O)C(=O)N[C@@H](CC(C)C)C(=O)N[C@@H](CCCCN)C(=O)N[C@@H](C)C(=O)N[C@@H](CC(C)C)C(=O)N[C@@H](C)C(=O)N[C@@H](C)C(=O)N[C@@H](CC(C)C)C(=O)N[C@@H](C)C(=O)N[C@@H](CCCCN)C(=O)N[C@@H](CCCCN)C(=O)N[C@H](C(=O)N[C@@H](CC(C)C)C(N)=O)[C@@H](C)CC
[2]
  IC50: 0.27 to 0.3 µM

## CC[C@H](C)[C@H](NC(=O)[C@H](CCCCN)NC(=O)[C@H](CCCCN)NC(=O)[C@H](C)NC(=O)[C@H](CC(C)C)NC(=O)[C@H](C)NC(=O)[C@H](C)NC(=O)[C@H](CC(C)C)NC(=O)[C@H](C)NC(=O)[C@H](CCCCN)NC(=O)[C@H](CC(C)C)NC(=O)[C@H](CC(N)=O)NC(=O)[C@@H](NC(=O)[C@H](Cc1ccc(O)cc1)NC(=O)[C@H](CCCNC(=N)N)NC(=O)[C@@H]1CCCN1C(=O)[C@H](CCCNC(=N)N)NC(=O)[C@H](CC(N)=O)NC(=O)[C@H](CCC(N)=O)NC(=O)[C@H](Cc1ccccc1)NC(=O)[C@@H](Cc1ccc(O)cc1)N(C)C(=O)Cc1ccccc1)[C@@H](C)CC)C(=O)N[C@@H](CC(C)C)C(N)=O
[2]
  IC50: 0.61 µM

## C/C=C/C/C(C)=C\[C@H]1C/C=C/C=C/C[C@H](C)/C=C(\C)[C@@H](OC)C/C=C/[C@@H](O[C@@H]2O[C@H](CO)[C@@H](O)[C@H](OC)[C@H]2O)CC(=O)O1
[3]
  Ki: 0.011 µM

## CCCCC/C=C\C/C=C\C/C=C\C/C=C\CCCC(=O)O[C@@H]1[C@@H](O)[C@@H](O)[C@H](OC[C@H]2O[C@@H](Oc3c(-c4ccc(O)c(O)c4)oc4cc(O)cc(O)c4c3=O)[C@H](O)[C@@H](O)[C@@H]2O)O[C@H]1C
[4]
  IC50: 23 µM

## O=C(O[C@@H]1Cc2c(O)cc(O)cc2O[C@@H]1c1cc(O)c(O)c(O)c1)c1cc(O)c(O)c(O)c1 [EPIGALOCATECHIN GALLATE]
[2]
  IC50: 12 µM

## Clc1cccc(C(Nc2ccnc3cc(Cl)ccc23)c2ccc(CN3CCCC3)cc2)c1 (configuration not stated)
[5]
  IC50: 8 µM

## O=c1c(O)c(-c2ccccc2)oc2ccc(O)cc12
[1]
  IC50: 6 µM

## Cc1ccc(-c2cc(C(F)(F)F)nn2-c2ccc(S(N)(=O)=O)cc2)cc1 [CELECOXIB]
[6]
  IC50: 32 µM

## CN1CCN(CCCN2c3ccccc3Sc3ccc(C(F)(F)F)cc32)CC1 [TRIFLUOPERAZINE]
[7]
  IC50: 45 µM

## CC(C)(c1ccc(O)cc1)c1ccc(O)cc1 [BISPHENOL A]
[8]
  IC50: 2 µM
[9]
  IC50: 233 µM
[10]
  IC50: 2 µM
[11]
  IC50: 233 µM

## CO[C@H]1C[C@@H]2CC[C@@H](C)[C@@](O)(O2)C(=O)C(=O)N2CCCC[C@H]2C(=O)O[C@H]([C@H](C)C[C@@H]2CC[C@@H](O)[C@H](OC)C2)CC(=O)[C@H](C)/C=C(\C)[C@@H](O)[C@@H](OC)C(=O)[C@H](C)C[C@H](C)/C=C/C=C/C=C/1C [SIROLIMUS]
[12]
  IC50: 77 µM
[13]
  IC50: 77 µM
Sus scrofa domesticus
  inhibition: 80%
[14]
  IC50: 77 µM

## CN(C)CCCN1c2ccccc2Sc2ccc(Cl)cc21 [CHLORPROMAZINE]
[7]
  IC50: 23 µM

## O=C1c2c(O)cc(O)cc2OC2(c3ccc(O)c(O)c3)Oc3cc(-c4oc5cc(O)cc(O)c5c(=O)c4O)ccc3OC12O (configuration not stated)
Homo sapiens
  inhibition: 100%

## O=C1CSC(c2ccccc2Cl)c2cc(Cl)ccc2N1 (configuration not stated)
[15]
  IC50: 9.9 µM
[2]
  IC50: 6.6 µM

## IVERMECTIN
[12]
  IC50: 15 µM
[14]
  IC50: 15 µM

## CC(C)(C)c1cc(O)c(C(C)(C)C)cc1O
[16]
  IC50: 0.4 µM
[17]
  IC50: 2 to 7 µM
[18]
  IC50: 2 to 7 µM
[19]
  IC50: 2 to 7 µM

## Cc1ccc(-c2cc(C(F)(F)F)nn2-c2ccc(S(N)(=O)=O)cc2)c(C)c1
[2]
  IC50: 30 µM

## CC[C@H](C)[C@H](N)C(=O)N[C@@H](CC(N)=O)C(=O)N[C@@H](CC(C)C)C(=O)N[C@@H](CCCCN)C(=O)N[C@@H](C)C(=O)N[C@@H](CC(C)C)C(=O)N[C@@H](C)C(=O)N[C@@H](C)C(=O)N[C@@H](CC(C)C)C(=O)N[C@@H](C)C(=O)N[C@@H](CCCCN)C(=O)N[C@@H](CCCCN)C(=O)N[C@H](C(=O)N[C@@H](CC(C)C)C(=O)O)[C@@H](C)CC
[8]
  Ki: 1 µM

## C/C=C/C/C(C)=C\[C@@H]1OC(=O)C[C@H](O[C@@H]2O[C@H](CO)[C@@H](O)[C@H](OC)[C@H]2O)/C=C/C[C@H](OC)/C(C)=C/[C@@H](C)C[C@H]2C=C[C@H]1OO2
[3]
  Ki: 0.0013 µM
[2]
  Ki: 0.018 µM
